{
  "source": "patent US20230374103A1",
  "about": "“Wnt SIGNALING PATHWAY INHIBITOR” (OSAKA UNIVERSITY, priority 2020, published 2023)",
  "key": {"A549 cells": {"tested_on": "A549 cells", "assay": "Migration/invasion assay of A549 cells (Boyden chamber / Matrigel Invasion chamber)", "assay_type": "cell-based, human", "experimental": "The influence of RANKL peptide on the migration and invasion of A549 cells was examined. Specifically, the following procedure was performed. A chamber of an 8-μm polycarbonate membrane filter (Neuro Probe) was installed in the upper compartment of a Boyden chamber (48-well Chamber, Neuro Probe), A549 cells were seeded in serum-free DMEM containing MHP1-AcN, and DMEM containing 10% FBS was placed in the lower compartment, followed by incubation at 37° C. for 15 hours. In the invasion assay, the upper compartment was Matrigel Invasion chamber (Corning Life Science). Similar A549 cells were seeded in serum-free medium containing MHP1-AcN, and DEM containing 10% FBS was placed in the lower compartment. Cells adhering to the upper surface of each upper compartment were detached, the lower surface was stained with Diff-Quick (Sysmex), and the number of cells was counted under a microscope."}, "[1]": {"tested_on": "α-SMA and Colla1 expression (EMT)", "assay": "Expression of α-SMA and Colla1 induced by TGF-β in MRC-5 cells (real-time RT-PCR)", "assay_type": "cell-based", "experimental": "The influence of RANKL peptide on the expression of α-SMA and Colla1 induced by TGF-β was examined. Specifically, the following procedure was performed. After pretreatment of MHP1 with MRC-5 cells for 24 hours, 2 ng/m/ of TGFβ was added, the cells were collected after 24 hours, and mRNA levels were determined by real-time RT-PCR."}, "[2]": {"tested_on": "bleomycin-induced scleroderma model", "assay": "Late administration test in bleomycin-induced scleroderma model", "assay_type": "in vivo, C57BL6/J mice", "settings": "800 μg/mouse i.p. 5 days/week for 14 days after 14 days of bleomycin", "experimental": "As test animals, C57BL6/J mice (female, 8 weeks were prepared. 200 μg/mouse of bleomycin was subcutaneously injected at a frequency of 5 days/week for 14 days. Subsequently, 800 μg/mouse of saline or RANKL peptide was intraperitoneally administered at a frequency of 5 days/week for 14 days. The nice were sacrificed after 14 days (28 days after the start of bleomycin administration), and the skin tissue of the bleomycin-administered portion was stained with Masson's trichrome to evaluate fibrosis. Further, the expression of collagen gene mRNA, which is a fibrosis index, in the skin was evaluated."}, "[3]": {"tested_on": "Wnt signaling activation by RSPO", "assay": "Wnt signaling inhibition test (β-catenin responsive element luciferase reporter)", "assay_type": "cell-based", "settings": "HEK293 reporter cells; 50 ng/mL wnt3a + 20 ng/mL RSPO1/2/3; 24 hours; peptide tested MHP1-7 (FIG. 2)", "experimental": "HEK293 cells expressing luciferase under the control of β-catenin responsive element were plated on a 96 -well plastic plate (1×10^4 cells/well) and incubated in the presence or absence of 50 ng/mL of recombinant mouse wnt3a (R&D System, #1324-WN) and recombinant human RSPO1 (R&D System, #4645-RS), recombinant human RSPO2 (PeproTech, #120-43), or recombinant human RSPO3 (PeproTech, #120-44). When these were added at the same time as RANKL peptide, 50 ng/mL of recombinant mouse wnt3a and 20 ng/mL of RSPO1/2/3 were used. After incubation for 24 hours, luciferase activity was analyzed using a luciferase assay system (Promega) and a microplate luminometer (Centro XS3 LB960; Berthold Technologies). The protein concentration of each sample was measured using Takara Bradford Protein Assay Kit (Takara Bio Inc.). The results of luciferase activity were normalized to the protein concentration of each sample."}, "[4]": {"tested_on": "bleomycin-induced pulmonary fibrosis model", "assay": "Administration test in bleomycin-induced pulmonary fibrosis model", "assay_type": "in vivo, C57BL6/J mice", "settings": "800 μg/mouse i.p. once, bleomycin intratracheally, 14 days", "experimental": "As test animals, C57BL6/J mice (female, 8 weeks old) were prepared. Saline or RANKL peptide (800 μg/mouse) was administered intraperitoneally, and immediately thereafter, saline or bleomycin (0.05 μg/mouse) was directly administered intratracheally. The mice were sacrificed 14 days after administration, the lung weight and body weight were measured, and the lung weight/body weight ratio was determined. In addition, the lung tissue, was stained with Masson's trichrome, and Masson's trichrome score evaluation (0: normal, 1: fibrotic lesions predominantly at the margin of the lung, 2: marginal or global multifocal fibrotic lesions, 3: fibrotic lesions in approximately ⅓ of the area, 4: fibrotic lesions accounting for ⅔ or more of the area) was performed based on the stained images. Further, the expression of fibrosis marker gene mRNA in lung tissue was evaluated."}, "A549 cell xenograft": {"tested_on": "A549 cell xenograft", "assay": "A549 cell xenograft model", "assay_type": "in vivo, BALB/cAJcl-nu/nu", "settings": "600 μg/mouse every day, up to 49 days", "experimental": "The influence of RANKL peptide on cancer in an A549 cell xenograft model was examined. Specifically, the following procedure was performed. 2×10^6 cells were administered subcutaneously to BALB/cAJcl-nu/nu […]. After one day, 600 μg/mouse of MHP1 was administered every day, and the tumor size was measured up to 49 days. Further, the tumor weight was measured."}, "smad2/3": {"tested_on": "smad2/3", "assay": "smad2/3 activation induced by TGF-β in MRC-5 cells (WB)", "assay_type": "cell-based", "settings": "24 hours pretreatment, 5 ng/ml TGFβ, 10 minutes, MHP1-AcN (FIG. 17)", "experimental": "The influence of RANEL peptide on smad2/3 activation induced by TGF-β was examined. Specifically, the following procedure was performed. After pretreatment of MRC-5 cells with MHP1 for 24 hours, 5 ng/ml of TGFβ was added to the medium, the medium was collected after 10 minutes, and WB was performed."}, "[5]": {"settings": "MRC-5 cells, 24 hours pretreatment, TGFβ 24 hours, 10, 30, 100 μg/ml MHP1-AcN (FIG. 19)"}},
  "note": "Residues, ends and D or L forms follow the SMILES beside them.",
  "data": [
    {"smiles": "CC[C@H](C)[C@H](NC(=O)[C@H](CO)NC(=O)[C@@H](NC(=O)[C@H](CCCCN)NC(=O)[C@@H](NC(=O)[C@@H](NC(=O)[C@H](Cc1ccc(O)cc1)NC(=O)[C@@H](NC(=O)[C@H](CCSC)NC(=O)[C@H](CC(C)C)NC(C)=O)C(C)C)C(C)C)C(C)C)[C@@H](C)O)C(=O)N[C@@H](CCCCN)C(=O)N[C@H](C(=O)N1CCC[C@H]1C(=O)N[C@@H](CO)C(=O)N[C@@H](CO)C(=O)N[C@@H](Cc1c[nH]cn1)C(=O)N[C@@H](CC(N)=O)C(=O)N[C@@H](CC(C)C)C(=O)N[C@@H](CCSC)C(=O)N[C@@H](CCCCN)C(=O)NCC(=O)NCC(=O)N[C@@H](CO)C(=O)N[C@H](C(=O)N[C@@H](CCCCN)C(=O)N[C@@H](CC(N)=O)C(=O)N[C@@H](Cc1c[nH]c2ccccc12)C(=O)N[C@@H](CO)C(=O)NCC(=O)N[C@@H](CC(N)=O)C(N)=O)[C@@H](C)O)[C@@H](C)CC", "note": "[MHP1-7] (Ac-LMVYVVKTSIKIPSSHNLMKGGSTKNWSGN-NH2)", "values": [
      {"measurement": "migration of lung cancer cells (number of cells)", "setting": "A549 cells; A549 cells, Boyden chamber, 15 hours, MHP1-AcN (FIG. 15)", "result": "inhibited"},
      {"measurement": "invasion of lung cancer cells (number of cells)", "setting": "A549 cells; A549 cells, Matrigel Invasion chamber, MHP1-AcN (FIG. 15)", "result": "inhibited"},
      {"measurement": "Wnt signaling pathway in A549 cells", "setting": "A549 cells; migration/invasion test", "result": "inhibited"},
      {"measurement": "expression of Colla1 induced by TGF-β", "setting": "[1]; [5]", "result": "inhibited"},
      {"measurement": "expression of α-SMA (ACTA2) induced by TGF-β", "setting": "[1]; [5]", "result": "inhibited"},
      {"measurement": "EMT (epithelial-mesenchymal transition)", "setting": "[1]; concluded from α-SMA and Colla1 expression in MRC-5 cells", "result": "inhibited"},
      {"measurement": "skin thickening and fibrosis (Masson's trichrome, dermis thickness)", "setting": "[2]; MHP1-7 (FIG. 8)", "result": "inhibited"},
      {"measurement": "expression of the collagen gene mRNA (Colla1, Colla2) in skin", "setting": "[2]; MHP1-7 (FIGS. 9, 10)", "result": "inhibited"},
      {"measurement": "Wnt signaling activation by RSPO (luciferase activity normalized to protein concentration)", "setting": "[3]", "result": "inhibited"},
      {"measurement": "lung weight gain", "setting": "[4]; MHP1-7 (FIG. 11)", "result": "suppressed"},
      {"measurement": "weight loss (body weight)", "setting": "[4]; MHP1-7 (FIG. 11)", "result": "suppressed"},
      {"measurement": "expression of the fibrosis marker gene mRNA in lung tissue", "setting": "[4]; MHP1-7 (FIG. 12)", "result": "inhibited"},
      {"measurement": "lung tissue fibrosis (Masson's trichrome score)", "setting": "[4]; MHP1-7 (FIG. 13)", "result": "inhibited"},
      {"measurement": "influence on the degree of weight gain", "setting": "A549 cell xenograft", "result": "not confirmed"},
      {"measurement": "growth of cancer (tumor volume)", "setting": "A549 cell xenograft; MHP1-AcN (FIG. 16)", "result": "inhibited"},
      {"measurement": "smad2/3 activation induced by TGF-β", "setting": "smad2/3", "result": "inhibited"}
    ]}
  ]
}
